Results reported in article PMC11433870, “Neurotoxicity, Neuroprotection, In Vitro MAOA/MAOB Inhibitory Activity Assessment, Molecular Docking, and Permeability Assay Studies of Newly Synthesized Hydrazones Containing a Pyrrole Ring” (Molecules, 2024).
Where “and” joins values, the source holds several entries; their conditions need not be identical. Equal values may be shown once.

Tests used:
[1] = tested on: isolated rat brain synaptosomes; test: Neurotoxicity: synaptosomal viability (MTT), substances applied alone; type: cell-based; conditions: 50 µM applied alone, 1 h, compared to control (untreated synaptosomes)
Method: (§1) Synaptosomes and mitochondria were obtained by multiple, subcellular fractionation using a Percoll gradient. The necessary brain homogenate was prepared and centrifuged at 1000× g for 5 min at +4 °C. After centrifugation, the supernatants were collected and centrifuged again at 1000× g for 5 min at +4 °C. The supernatants from the two centrifugations were mixed and distributed into four tubes. The tubes were centrifuged at 10,000× g for 20 min at +4 °C three times. The last two centrifugations were for purification of synaptosomes and mitochondria.
(§2) The isolation of the required fractions was based on the formation of a colloidal solution of silicon (Percoll), as per the procedure, including: 1. Preparation of a 90% stock solution of Percoll, followed by preparation of two Percoll solutions of different percentages: 16% and 10%. An amount of 4 mL of each of the prepared 16% and 10% Percoll solutions was placed in six test tubes. A 90% Percoll (7.5% Percoll) was added to the precipitate obtained from the previous step from the last centrifugation. The obtained mixtures in all 12 tubes were centrifuged for 20 min at 15,000× g +4 °C. After centrifugation, three layers are formed in the tubes. The bottom layer contains mitochondria, the top layer contains lipids, and the middle layer—at the 16% to 10% Percoll limit—contains synaptosomes. The respective layer from each tube is removed through a glass pasteurizer and collected into one. Buffer B + glucose is added to it. The mixture was centrifuged at 10,000× g for 20 min at +4 °C. Thus, the isolation buffer is exchanged with the incubation buffer. After centrifugation, the pellet where the synaptosomes are mixed and made up with buffer B + glucose.
(§3) Synaptosomes and mitochondria were incubated with the test substances at a concentration of 50 µM for 1 h.
After 1 h incubation with the substances and toxic agent, synaptosomes were centrifuged on a microcentrifuge for 1 min at 15,000× g. The pellet was mixed gently with buffer B + glucose, and the supernatant where 6-OHDA was discarded to prevent oxidation of MTT. Centrifuge again at 15,000× g for 1 min. After the second wash, buffer B + glucose was added to the pellet. To the ‘washed’ synaptosomes, 60 µL of MTT solution is added. The plates were incubated with the MTT solution at 37 °C for 10 min. After incubation, the samples were centrifuged at 15,000× g for 2 min. The excess liquid was removed, and a DMSO solution was used to dissolve the formed formazan crystals. After dissolution, the amount of formazan is measured spectrophotometrically at λ = 580 nm.

[2] = tested on: isolated rat brain synaptosomes; test: Neurotoxicity: reduced glutathione (GSH) level in synaptosomes, substances applied alone; type: cell-based; conditions: 50 µM applied alone, 1 h, compared to control
Method: as §1, §2, §3
(§4) After precipitation of the proteins with trichloroacetic acid, the thiol groups in the supernatant were determined by DTNB, which produced a yellow-colored compound that absorbs light at λ = 412 nm. After incubation, synaptosomes were centrifuged at 4000× g for 3 min. The supernatant was removed and the pellet taken for GSH determination. It was treated with 5% trichloroacetic acid, then left for 10 min on ice. It was centrifuged at 8000× g for 10 min (2 °C). The supernatant is taken for GSH determination and frozen at −20 °C. Immediately before measurement, the samples are neutralized with 5N NaOH [58].

[3] = tested on: isolated rat brain mitochondria; test: Neurotoxicity: MDA production in brain mitochondria, substances applied alone; type: cell-based; conditions: 50 µM applied alone, compared to control
Method: as §1, §2, §3
To the mitochondria was added 0.3 mL of 0.2% thiobarbituric acid and 0.25 mL of sulfuric acid (0.05 M), and the mixture was boiled for 30 min. After boiling, the tubes were placed on ice, and 0.4 mL of n-butanol was added to each, then centrifuged at 3500× g for 10 min. The amount of MDA was determined spectrophotometrically at 532 nm.

[4] = tested on: isolated rat brain mitochondria; test: Neurotoxicity: GSH level in brain mitochondria, substances applied alone; type: cell-based; conditions: 50 µM applied alone, compared to control
Method: as §1, §2
[…]. After centrifugation of the homogenate at 6000× g, a 0.04% solution of DTNB was added to the supernatant to give a yellow color, the determination being spectrophotometric at 412 nm.

[5] = tested on: isolated rat brain microsomes; test: Neurotoxicity: MDA production in brain microsomes, substances applied alone; type: cell-based; conditions: 50 µM applied alone, compared to control
Method: (§5) The brain was homogenized in 9 volume parts of 0.1 M Tris buffer containing: 0.1 mM dithiothreitol, 0.1 mM phenylmethylsulfonyl fluoride, 0.2 mM EDTA, 1.15% KCl, and 20% (v/v) glycerol (pH 7.4). The resulting homogenate was centrifuged twice at 17,000× g for 30 min. The supernatants from the two centrifugations were pooled and centrifuged twice at 100,000× g for 1 h. The pellet was frozen in 0.1 M Tris buffer.
(§6) After completion of incubation of the microsomes with the substances and toxic agent, the reaction was stopped by the addition of 0.5 mL of 20% trichloroacetic acid, followed by 0.5 mL of 0.67% thiobarbituric acid. The ongoing reactions are associated with the formation of a colored complex between the malondialdehyde formed and thiobarbituric acid. The determination of MDA was spectrophotometric at 535 nm. A molar extinction coefficient of […] was used for the calculation.

[6] = tested on: isolated rat brain synaptosomes; test: 6-OHDA-induced neurotoxicity model: GSH level; type: cell-based; conditions: 50 µM in combination with 6-OHDA (150 µM), compared to the toxic agent
Method: as §1, §2, §3
Synaptosomes were incubated with 6-OHDA (150 μM) for 1 h.
as §4

[7] = tested on: isolated rat brain microsomes; test: Fe2+/AA-induced non-enzyme lipid peroxidation model: MDA production; type: cell-based; conditions: 50 µM in combination with Fe2+/AA, compared to the toxic agent
Method: as §5
Non-enzyme-induced lipid peroxidation was induced with 20 μM ferrous sulfate solution and 0.5 mM ascorbic acid solution [62].
as §6

[8] = target: T1, human recombinant MAOA enzyme (hMAOA) (Homo sapiens, UniProt P21397); test: Human recombinant MAOA enzyme activity (fluorometric, Amplex Red); type: biochemical; conditions: read-out: IC50 (EC50), (µM ± SD) hMAOA
T1 sequence (P21397 1-527): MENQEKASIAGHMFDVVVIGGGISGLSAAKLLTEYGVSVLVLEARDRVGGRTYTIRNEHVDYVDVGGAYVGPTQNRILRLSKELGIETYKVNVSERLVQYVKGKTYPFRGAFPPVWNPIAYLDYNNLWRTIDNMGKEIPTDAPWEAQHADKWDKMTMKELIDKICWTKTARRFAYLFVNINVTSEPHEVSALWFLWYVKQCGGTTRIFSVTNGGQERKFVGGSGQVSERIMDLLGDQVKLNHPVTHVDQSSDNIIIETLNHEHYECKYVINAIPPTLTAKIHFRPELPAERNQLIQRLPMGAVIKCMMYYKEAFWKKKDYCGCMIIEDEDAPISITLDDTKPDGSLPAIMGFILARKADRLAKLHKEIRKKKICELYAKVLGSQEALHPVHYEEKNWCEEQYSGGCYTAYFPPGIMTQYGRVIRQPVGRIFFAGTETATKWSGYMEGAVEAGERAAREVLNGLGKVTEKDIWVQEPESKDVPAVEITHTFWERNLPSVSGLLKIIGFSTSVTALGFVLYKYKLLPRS
Method: (§7) The activity of recombinant human MAOA/B was determined fluorometrically. Tyramine hydrochloride was used as substrate. The activity is determined by detection of H2O2 production. This production is in turn reported by binding to horseradish peroxidase using N-acetyl-3,7-dihydroxyphenoxazine (AmplexRed, Thermo Fisher Scientific, Waltham, MA, USA) [63].
(§8) Working solutions of the test substances, reagents, and human recombinant MAOA/B enzyme (hMAOA/B) were prepared in reaction buffer according to the manufacturer’s instructions. A pure working solution of MAOA/B in reaction buffer, a working solution of MAOA/B containing hydrogen peroxide, and a pure reaction buffer were used as controls. Substances were applied at a final concentration of 1 µM. The substances together with hMAOB were placed in a 96-well plate (8 samples for each substance), and then the plate was placed in an incubator for 30 min (in the dark, at 37 °C). Fluorimetric readings were performed in a Synergy 2 Microplate Reader at two wavelengths (570 nm and 690 nm).

[9] = target: T2, human recombinant MAOB enzyme (hMAOB) (Homo sapiens, UniProt P27338); test: Human recombinant MAOB enzyme activity (fluorometric, Amplex Red); type: biochemical; conditions: for inhibition at 1 µM: compared to control (pure hMAOB); for IC50: read-out: IC50 (EC50), (µM ± SD) hMAOB;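 as to all read-outs here: tyramine as substrate, H2O2 formation detected by horseradish peroxidase coupled Amplex Red fluorescence read at 570 and 690 nm, compounds incubated with enzyme 30 min at 37 °C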
T2 sequence (P27338 1-520): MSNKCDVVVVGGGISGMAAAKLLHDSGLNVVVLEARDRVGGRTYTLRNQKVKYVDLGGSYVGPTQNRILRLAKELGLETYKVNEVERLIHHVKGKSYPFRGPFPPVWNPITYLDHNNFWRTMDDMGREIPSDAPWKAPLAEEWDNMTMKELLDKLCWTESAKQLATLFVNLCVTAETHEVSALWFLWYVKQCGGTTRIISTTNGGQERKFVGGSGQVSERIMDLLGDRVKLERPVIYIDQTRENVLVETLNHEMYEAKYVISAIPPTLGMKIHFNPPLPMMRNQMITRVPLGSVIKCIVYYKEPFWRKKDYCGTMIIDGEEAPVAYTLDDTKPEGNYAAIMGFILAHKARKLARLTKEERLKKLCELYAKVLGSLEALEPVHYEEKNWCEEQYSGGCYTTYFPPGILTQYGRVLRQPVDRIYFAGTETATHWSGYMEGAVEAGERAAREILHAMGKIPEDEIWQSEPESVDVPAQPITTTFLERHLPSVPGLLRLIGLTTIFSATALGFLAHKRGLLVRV
Method: as §7, §8

[10] = pH 7.4, 50 µM, 4 h, 25 °C; Pe calculated in 10^−6 cm/s, presented as −logPe
[11] = tested on: isolated rat brain mitochondria; test: t-BuOOH-induced oxidative stress model: GSH level; conditions: 50 µM in combination with t-BuOOH (75 µM), compared to the toxic agent
[12] = tested on: isolated rat brain mitochondria; test: t-BuOOH-induced oxidative stress model: MDA production; conditions: 50 µM in combination with t-BuOOH (75 µM), compared to the toxic agent

| Compound | decrease of synaptosomal viability [1] | decrease of glutathione (GSH) level [2] | increase of MDA production [3] | decrease of GSH level [4] | increase of MDA production [5] | preservation of GSH level [6] | decrease of MDA production [7] | IC50 [8] | SI: hMAOB selectivity index = IC50(hMAOA)/IC50(hMAOB) [9] | inhibition at 1 µM [9] | IC50 [9] | PAMPA BBB −logPe [10] | preservation of GSH level [11] | reduction of MDA production [12] |
| --- | --- | --- | --- | --- | --- | --- | --- | --- | --- | --- | --- | --- | --- | --- |
| CCOC(=O)c1cc(-c2ccc(Br)cc2)n(CC(=O)NN=Cc2ccc(N(C)C)cc2)c1C [7a] | 30% | 25% | 63% | 20% | 54% | 50% | 34% | > 100 µM | >123 | 20% | 0.812 ± 0.1 µM | 4.849 ± 0.043 | 40% | 14% |
| CCOC(=O)c1cc(-c2ccc(Br)cc2)n(CC(=O)NN=Cc2ccc(Cl)cc2)c1C [7b] | 25% | 15% | 43% | 15% | 40% | 60% | 46% | > 100 µM | >181 | 40% | 0.551 ± 0.1 µM | 4.416 ± 0.022 and 4.416 | 70% | 28% |
| CCOC(=O)c1cc(-c2ccc(Br)cc2)n(CC(=O)NN=Cc2ccc([N+](=O)[O-])cc2)c1C [7c] | 35% | 20% | 53% | 25% | 51% | 50% | 35% | > 100 µM | >123 | 25% | 0.815 ± 0.2 µM | 4.601 ± 0.040 | 40% | 18% |
| CCOC(=O)c1cc(-c2ccc(Br)cc2)n(CC(=O)NN=Cc2cc(OC)c(O)c(OC)c2)c1C [7d] | 20% | 15% | 34% | 15% | 27% | 70% | 52% | > 100 µM | >204 | 45% | 0.491 ± 0.09 µM | 4.819 ± 0.004 and 4.819 | 80% | 35% |
| CCOC(=O)c1cc(-c2ccc(Br)cc2)n(CC(=O)NN=Cc2ccc(OC)cc2OC)c1C [7e] | 30% | 25% | 50% | 25% | 52% | 40% | 31% | > 100 µM | >123 | 35% | 0.81 ± 0.09 µM | 4.814 ± 0.15 | 50% | 10% |
| CCOC(=O)c1cc(-c2ccc(Br)cc2)n(CCC(=O)NN=Cc2ccc(N(C)C)cc2)c1C [8a] | 35% | 25% | 60% | 20% | 55% | 40% | 35% | > 100 µM | >122 | 20% | 0.821 ± 0.1 µM | 5.268 and 5.268 ± 0.014 | 60% | 18% |
| CCOC(=O)c1cc(-c2ccc(Br)cc2)n(CCC(=O)NN=Cc2ccc(Cl)cc2)c1C [8b] | 30% | 20% | 52% | 20% | 51% | 50% | 31% | > 100 µM | >123 | 25% | 0.815 ± 0.1 µM | 4.444 ± 0.004 | 50% | 9% |
